Experimental data from PMC6949113, “Preclinical evaluation of AT-527, a novel guanosine nucleotide prodrug with potent, pan-genotypic activity against hepatitis C virus” (PLoS ONE, 2020).
Read-outs that look alike come from different tables or passages of the source.

Assays:
K562 cells [1] = assay: K562 cytotoxicity (XTT, 3 days); type: cell-based, human
Procedure: (§1) Mitochondrial toxicity assay. K562 leukemia cells (ATCC, CCL-243) seeded in 96-well plates (1x10^5 cells/well) were incubated in triplicate with test or positive control compounds in RPMI containing glucose, 10% FBS and 2 mM L-glutamine. […] Viability was compared with untreated cells to determine TC50 values. Separately, K562 cells were incubated in triplicate with test compounds in glucose-free RPMI supplemented with 10 mM galactose. Test compounds diluted in RPMI containing glucose were evaluated in parallel.

[2] = test system: SDH-A protein in PC3 cells; assay: Mitobiogenesis toxicity assay, SDH-A; type: cell-based, human; settings: 5 days, read-out: Mitogenesis IC50 SDH-A
Procedure: (§2) Mitobiogenesis toxicity assay. […] One plate was used to measure cell viability by XTT staining. Cells in the remaining two plates were fixed with 4% paraformaldehyde for 20 min, washed thrice with DPBS, and 0.5% acetic acid added for 5 min to block endogenous alkaline phosphatase activity. Nuclear DNA encoded Complex II SDH-A mitochondrial protein and mitochondrial encoded Complex IV COX-1 protein were measured spectrophotometrically using the Abcam Mitobiogenesis ELISA kit (Cambridge, UK) per the manufacturer’s instructions.

[3] = test system: COX-1 protein in PC3 cells; assay: Mitobiogenesis toxicity assay, COX-1; type: cell-based, human; settings: 5 days, read-out: Mitogenesis IC50 COX-1
Procedure: as §2

K562 cells [4] = assay: Mitochondrial toxicity assay (Mitochondrial ToxGlo, glucose/galactose); type: cell-based, human
Procedure: as §1

PC3 cells = assay: PC3 cytotoxicity (XTT, 5 days); type: cell-based, human
Procedure: as §2

[5] = Intracellular metabolism in human hepatocytes; type: in vitro ADME; settings: human hepatocytes; low to undetectable
Procedure: (§3) Hepatocytes. […] Cryopreserved male mouse (CD1), and fresh male Beagle dog and male cynomolgus monkey hepatocytes were obtained from BioreclamationIVT (Baltimore, MD) and were similarly plated with Matrigel in 6- or 24-well plates and maintained overnight in InVitroGRO™HI medium with Torpedo™ antibiotic (BioreclamationIVT). The protocol described above for measuring AT-511 and its metabolites in Huh-7 cells was repeated with the five different hepatocytes. Untreated cells were collected at 24 h, and the protein content of the cell lysates were determined using a bicinchoninic acid protein assay kit to assess the number of cells in each incubation. Separately, plated human hepatocytes were incubated for 6 h with 100 μM AT-511, followed by washout periods of 0, 2, 6, 18 and 30 h.
(§4) S3 Protocol. LC-MS/MS analysis of AT-511 and metabolites in cultured cells. The supernatant extracts of each hepatocyte and Huh-7 cell incubation were separately analyzed by four different LC-MS/MS methods for quantitation of phosphoramidates, nucleosides, monophosphates, and triphosphates (methods 1, 2, 3 and 4, respectively), using synthetic reference standards of actually and potentially present compounds and using structurally related analogs as internal standards. Briefly, a Luna PFP (2), 5 µm, 100 x 4.6 mm column and an AB Sciex API-6500 mass spectrometer (ESI positive ion, MRM mode) were used for methods 1-3 and an XBridge Oligonucleotide, BEH C18, 2.5 µm, 50 x 2.1 mm column and a Thermo QE Plus mass spectrometer (electrospray, negative ion mode) were used for method 4. For methods 1 and 2, mobile phases A (10 mM ammonium acetate in water) and B (acetonitrile:methanol, 1:1, v/v) were used to elute samples (5 µL) at 1 mL/min with 15% B for 1.5 min followed by a linear gradient to 75% B over 1 min (method 1) or with 54% B for 1.3 min followed by a linear gradient to 90% B over 1.2 min. Method 3 was the same except mobile phase A was 0.3% acetic acid in water, […] and samples were eluted with 3% B for 3 min followed by a linear gradient to 55% B over 1.2 min. For method 4, mobile phase A (3 mM ammonium formate with 10 mM dimethylhexylamine (DMHA) in water) and mobile phase B (3 mM ammonium formate with 10 mM DMHA in acetonitrile:water, 1:1, v/v) were used to elute samples at 0.4 mL/min with 0% B for 1.5 min followed by a linear gradient to 100% B over 2 min and ending with an isocratic elution for 0.5 min at 100% B.

[6] = Intracellular metabolism in mouse hepatocytes; type: in vitro ADME, mouse (CD1); settings: low to undetectable
Procedure: as §3, §4

Monkey PK study, plasma = type: in vivo, cynomolgus monkey; settings: for plasma concentration: male cynomolgus monkeys; for AUC(0-t) / Cmax / MRT last / Tmax: male, cynomolgus, cynomolgus monkey, in vivo, po
From the text: Monkey PK study. Male non-naïve cynomolgus monkeys were obtained from Hainan Jingang Laboratory Animal Co., Ltd. (Hainan, China), group housed during the 5-day acclimation period or individually housed during the study in stainless steel mesh cages, provided ad libitum access to RO water, fed twice daily (~120 g Certified Monkey Diet daily; Beijing Vital Keao Feed Co., Ltd., Beijing, China) and given daily treats of fresh fruit. Additional environmental enrichment included classical music and cartoons. Three groups of 5 monkeys each were administered 30, 100 or 300 mg/kg AT-527 as a powder filled in empty porcine hard gelatin capsules (size 0). The monkeys were fasted overnight prior to dosing and fed 4 h after dosing. Three dosages were selected to provide assessments of dose proportionality, the top two representing potential doses for a repeated oral dose toxicity study in monkeys, and the lowest predicted to be more therapeutically relevant. A pill gun was used to place the capsule beyond the root of the animals’ tongues and their mouths were held loosely closed for approximately 30 sec to allow them to move the jaw and swallow the capsule. Immediately following capsule administration, 20 mL of water was given by mouth and then the mouth was opened to ensure the capsule was swallowed. Blood samples (~0.6 mL) were collected up to 72 h from three animals per dose group, and up to 4 h from the remaining two animals in each group, at the same time points described for rats. […] Blood samples were collected with a syringe from a peripheral blood vessel from restrained, non-sedated animals, immediately transferred to pre-chilled tubes containing ~1 mg K2EDTA•2H20 and 20 μL of 5 mM dichlorvos solution, mixed and placed on ice until plasma was prepared by centrifugation as described for rats. Immediately after centrifugation, plasma samples were extracted with 4 volumes ISS2, and the supernatants were clarified by centrifugation (12,000 rpm, 10 min, 4°C) and stored at ≤ -60°C until analyzed by LC-MS/MS as described below. After the 4-hr blood collection, two monkeys per dose group were anesthetized with intravenous injection of pentobarbital sodium (60 mg/kg) and then euthanized as described for rats. […] All analytes were quantitated by LC-MS/MS as described below.
LC-MS/MS analysis of rat and monkey plasma and tissue homogenate supernatants. For the analysis of AT-511 in rat plasma, aliquots were extracted with 10 volumes ISS2. The supernatants were clarified by centrifugation (4000 rpm for 10 min at 4°C) and 3 μL samples were injected onto an Acuity BEH C18 1.7 μm, 2.1 × 50 mm column and a Sciex API 4000 mass spectrometer (ESI positive ion, MRM mode). Mobile phases A (0.025% formic acid (FA) and 1 mM ammonium acetate (AA) in 5% ACN in water) and B (0.025% FA and 1 mM AA in 95% ACN in water) were used to elute samples (3 μL) at 0.6 mL/min with 10% B for 0.3 min followed by linear gradients to 60% B over 0.6 min and to 90% B over 0.2 min, and ending with 90% B for 0.4 min.
PK data analysis. […] The linear/log trapezoidal rule was applied in obtaining the PK parameters.

[7] = Rat pharmacokinetic study, plasma; type: in vivo, Sprague-Dawley rat; settings: for plasma concentration, individual rats: AT-527 500 mg/kg oral, male 1-3, female 7-9, BQL: <0.0017 AT-511, <0.0022 M1, <0.0032 AT-273, M4
[8] = Intracellular metabolism in dog hepatocytes; type: in vitro ADME, Beagle dog; settings: low to undetectable
Procedure: as §3, §4

[9] = K562 cells, glucose medium, 3 days, XTT
[10] = K562, glucose-free galactose medium, 2 h, inhibition of cellular ATP levels, read-out: MF (Gal) IC50, mitochondrial function
[11] = K562, glucose-free galactose medium, 2 h, measure of necrosis, read-out: MI (Gal) IC50, cell membrane integrity
[12] = Homo sapiens, K562, 2 h, read-out: MF (Gal) IC50, mitochondrial function
[13] = Homo sapiens, K562, glucose-free galactose medium, 2 h, measure of necrosis, read-out: MI (Gal) IC50, cell membrane integrity
[14] = both sexes, Sprague-Dawley, rat, in vivo, po, 500 mg/kg

N#CC(C#N)=NNc1cccc(Cl)c1 [CCCP]
Cytotoxicity TC50 (K562 cells [1]; [9]): 8.8 µM
IC50 [2]: 13.5 µM
IC50 [3]: 15.1 µM
IC50 (K562 cells [4]; [10]): < 0.6 µM
IC50 (K562 cells [4]; [11]): 7 µM
Cytotoxicity TC50 (PC3 cells; PC3 cells, 5 days, XTT): 17.7 µM

O=C(N[C@H](CO)[C@H](O)c1ccc([N+](=O)[O-])cc1)C(Cl)Cl [Chloramphenicol]
Cytotoxicity TC50 (K562 cells [1]; human, 3 days): 50.9 µM
IC50 ([2]; Homo sapiens, PC-3, 120 h): > 100 µM
IC50 ([3]; Homo sapiens, PC-3, 120 h): 95.3 µM
IC50 (K562 cells [4]; [12]): > 100 µM
IC50 (K562 cells [4]; [13]): > 100 µM
Cytotoxicity TC50 (PC3 cells; human, 5 days): >100 µM

C[C@@H]1CC[C@@]2(OC1)O[C@H]1[C@@H](O)[C@H]3[C@@H]4CC[C@H]5C[C@@H](O[C@@H]6O[C@H](CO)[C@H](O[C@@H]7O[C@H](CO)[C@@H](O)[C@H](O[C@@H]8OC[C@@H](O)[C@H](O)[C@H]8O)[C@H]7O[C@@H]7O[C@H](CO)[C@H](O)[C@H](O[C@@H]8O[C@H](CO)[C@@H](O)[C@H](O)[C@H]8O)[C@H]7O)[C@H](O)[C@H]6O)[C@H](O)C[C@]5(C)[C@H]4CC[C@]3(C)[C@H]1[C@@H]2C [Digitonin]
Cytotoxicity TC50 (K562 cells [1]; [9]): 8.1 µM
IC50 ([2]; Homo sapiens, PC-3, 120 h): 40.7 µM
IC50 ([3]; Homo sapiens, PC-3, 120 h): 32.6 µM
IC50 (K562 cells [4]; [12]): 27.9 µM
IC50 (K562 cells [4]; [13]): 31.9 µM
Cytotoxicity TC50 (PC3 cells; PC3 cells, 5 days, XTT): 27.2 µM

CNc1nc(N)nc2c1ncn2[C@@H]1O[C@H](CO)[C@@H](O)[C@@]1(C)F [M4]
intracellular levels of nucleoside metabolites [5]: < 10 pmol/10^6 cells
intracellular levels of nucleoside metabolites [6]: < 10 pmol/10^6 cells
plasma concentration (Monkey PK study, plasma; single oral AT-527 100 mg/kg, 0.500 h, monkey 1): BQL
plasma concentration (Monkey PK study, plasma; single oral AT-527 100 mg/kg, 72.0 h, monkey 2): BQL
plasma concentration (Monkey PK study, plasma; single oral AT-527 300 mg/kg, 0.500 h, monkey 1): BQL
plasma concentration (Monkey PK study, plasma; single oral AT-527 300 mg/kg, 0.500 h, monkey 2): BQL
plasma concentration (Monkey PK study, plasma; single oral AT-527 300 mg/kg, 0.500 h, monkey 3): BQL
plasma concentration (Monkey PK study, plasma; single oral AT-527 300 mg/kg, 1.00 h, monkey 1): BQL
plasma concentration (Monkey PK study, plasma; single oral AT-527 300 mg/kg, 72.0 h, monkey 3): BQL
AUC(0-t) (Monkey PK study, plasma; 30 mg/kg): 18.2 ± 1.7 µM·h
Cmax (Monkey PK study, plasma; 30 mg/kg): 670 ± 140 nM
MRT last (Monkey PK study, plasma; 30 mg/kg): 22.4 ± 2.4 h
Tmax (Monkey PK study, plasma; 30 mg/kg): 14.7 ± 8.1 h
AUC(0-t) (Monkey PK study, plasma; 100 mg/kg): 39.2 ± 15 µM·h
Cmax (Monkey PK study, plasma; 100 mg/kg): 1300 ± 490 nM
MRT last (Monkey PK study, plasma; 100 mg/kg): 22.3 ± 4.1 h
Tmax (Monkey PK study, plasma; 100 mg/kg): 15.3 ± 7.6 h
AUC(0-t) (Monkey PK study, plasma; 300 mg/kg): 53.9 ± 31.7 µM·h
Cmax (Monkey PK study, plasma; 300 mg/kg): 1660 ± 490 nM
MRT last (Monkey PK study, plasma; 300 mg/kg): 26.6 ± 9.6 h
Tmax (Monkey PK study, plasma; 300 mg/kg): 17.3 ± 11.5 h
plasma concentration, individual rats ([7]; 48.0 h): BQL
plasma concentration, individual rats ([7]; 72.0 h): BQL
AUC(0-t) [7, 14]: 207 ± 56.1 µM·h
Cmax [7, 14]: 28800 ± 8500 nM
MRT last [7, 14]: 6.41 ± 1.06 h
intracellular levels of nucleoside metabolites [8]: < 10 pmol/10^6 cells

Nc1ccn([C@H]2CC[C@@H](CO)O2)c(=O)n1 [ddC]
Cytotoxicity TC50 (K562 cells [1]): >20 µM
IC50 [2]: > 20 µM
IC50 [3]: 1.1 µM
IC50 (K562 cells [4]; [10]): > 20 µM
IC50 (K562 cells [4]; [11]): > 20 µM
Cytotoxicity TC50 (PC3 cells): >20 µM
